Laboratory results taken from US9914750B2, “Synthetic peptides and peptide mimetics” (University of Louisville Research Foundation, priority 2007, dated 2018).
No end group written: not given here.

Experiments:
sheep red blood cells = assay: Hemagglutination assay; type: cell-based; conditions: PBS, absence of serum, 2 h
Experimental: FIG. 22: Hemagglutination of sheep red blood cells. RBCs were washed in PBS and incubated for 2 h in microtiter plates in PBS±5% fetal calf serum. Peptide concentrations were 83 μg/ml. The microtiter plate was imaged. Agglutinated red blood cells form a wide mat of cells, while non-agglutinated cells form a button shaped pellet.
Briefly, unmodified sheep erythrocytes (Cappel, M P Biomedicals, Irvine, Calif.) were washed in PBS and suspended at 1% in PBS. Diluted erythrocytes and 20 μg/ml of each peptide in PBS were mixed in polypropylene microtiter plates (120 μl per well) and incubated for 2 h at 35° C. The plates were imaged on a Kodak Image station.

[1] = tested on: Aggregatibacter (Actinobacillus) actinomycetemcomitans JP2; type: cell-based; conditions: 10 or 100 μg/ml
Experimental: The PSP peptides GL13, GK7 and KL11, lysozyme, LL37 or no peptide (BLK) were incubated with P. aeruginosa (FIG. 3A) or A. actinomycetemcomitans (FIG. 3B). P. aeruginosa PAO1 (10^5 cells/ml) were incubated for 2 h at 35° C. with 10 μg/ml (open bars) or 100 μg/ml (shaded bars) of each peptide. A. actinomycetemcomitans JP2 (10^5 cells/nil) were incubated for 4 h at 37° C. under reduced oxygen conditions. Bacterial cultures were diluted and plated on LB agar (Pseudomonas) or BHI agar plates (A.a., low oxygen incubation) and surviving CFUs enumerated. The data are shown as mean±SEM, P. aeruginosa: N=8−22 at 100 μg/ml, N=2−10 at 10 μg/ml. A. actinomycetemcomitans: N=3. *) P<0.0001, **) P<0.004, ***) P<0.02
Overnight cultures of bacteria were pelleted and resuspended in 10 mM sodium phosphate, pH 7.4 (10^5 CFU/ml). Diluted bacteria (100 μl) were incubated with 10 or 100 μg/ml of each peptide in 10 mM sodium phosphate, pH 7.4. P aeruginosa PAO1 were incubated for 2 h at 35° C. while A. actinomycetemcomitans JP2 were incubated for 4 h at 37° C. under reduced oxygen conditions. […]
As a second antibacterial assay, bactericidal activity was determined by incubating the peptides (10 or 100 μg/ml) with P. aeruginosa, A. actinomycetemcomitans or S. gordonii in 10 mM phosphate buffer. […]

[2] = tested on: LPS-binding protein (LBP); assay: Inhibition of LPS binding to LPS-binding protein (ELISA); conditions: for Inhibition (Mean ± SEM) of LPS binding to LBP: relative to polymyxin B (100% inhibition), LPS preincubated with peptide
Experimental: Analysis of the PSP sequence indicated three possible regions of biological activity. Initially, three peptides corresponding to the PSP sequence in these regions were designed and used in these studies. The initial step in the inflammatory cascade is the binding of LPS to LPS-binding protein. This binding was inhibited by preincubation of LPS with each of the three peptides. […] The binding of LPS to LPB was analyzed to ELISA. 0% inhibition (100% binding) was determined in the absence of inhibitors while 100% inhibition was determined in the presence of the inhibitor polymyxin B. The inhibition of each peptide is determined relative to the effect of polymyxin B.

| Molecule | hemagglutination (words) (sheep red blood cells) | Inhibition (Mean ± SEM) of LPS binding to LBP [2] | further results |
| --- | --- | --- | --- |
| CC[C@H](C)[C@H](NC(=O)[C@H](CCCCN)NC(=O)[C@H](CCC(=O)O)NC(=O)[C@H](CCCCN)NC(=O)[C@H](CO)NC(=O)[C@H](CCCCN)NC(=O)[C@H](CCCNC(=N)N)NC(=O)[C@H](Cc1ccccc1)NC(=O)[C@H](Cc1ccccc1)NC(=O)[C@H](CC(=O)O)NC(=O)CNC(=O)[C@H](CC(C)C)NC(=O)[C@@H](N)CC(C)C)C(=O)NCC(=O)N[C@@H](CCCCN)C(=O)N[C@@H](CCC(=O)O)C(=O)N[C@@H](Cc1ccccc1)C(=O)N[C@@H](CCCCN)C(=O)N[C@@H](CCCNC(=N)N)C(=O)N[C@H](C(=O)N[C@H](C(=O)N[C@@H](CCC(N)=O)C(=O)N[C@@H](CCCNC(=N)N)C(=O)N[C@H](C(=O)N[C@@H](CCCCN)C(=O)N[C@@H](CC(=O)O)C(=O)N[C@@H](Cc1ccccc1)C(=O)N[C@@H](CC(C)C)C(=O)N[C@@H](CCCNC(=N)N)C(=O)N[C@@H](CC(N)=O)C(=O)N[C@@H](CC(C)C)C(=O)N[C@H](C(=O)N1CCC[C@H]1C(=O)N[C@@H](CCCNC(=N)N)C(=O)N[C@H](C(=O)N[C@@H](CCC(=O)O)C(=O)N[C@@H](CO)C(=O)O)[C@@H](C)O)C(C)C)[C@@H](C)CC)C(C)C)[C@@H](C)CC [LL37, reference compound] | did not cause hemagglutination |  | killing of A. actinomycetemcomitans [1]: 100% |
| Substance P: antibacterial cationic peptide substance P |  | −18% ± 19 | effect on LPS binding to LBP [2]: had no effect on LPS binding to LBP |
| GQIINLKASLDLL [GL13-OH, GQIINLKASLDLL] | caused hemagglutination |  |  |
| GQIINLKASLNLL-NH2 [GL13-D/N-NH2, GQIINLKASLNLL-(CONH2)] | caused hemagglutination |  |  |
| KLLNNVISK [KK9] |  | 34% ± 12 |  |
| KAQEAEKLLNN [KN11] |  | 36% ± 13 |  |
